Data as given in patent publication EP0179667B1, “N6-substituted adenosines” (priority 1984, dated 1986).

Columns and labels:
adenosine A2 receptor = biological target: T1, adenosine A2 receptor (Rattus norvegicus, UniProt P30543); experiment: Adenosine Receptor Binding - A2 Receptor Affinity (RBA2); conditions: [3H]NECA, rat striatal membranes; read-out: RBA-2
T1 construct: 5 mg original tissue weight of rat weight of rat striatal membranes; tissue Pel-Freez (Rogers, Arkansas); host or cells: rat striatum, membrane preparation

Swiss-Webster male mice = experiment: Mouse Activity and Screen Test Procedure (MAST): locomotor activity in actophotometer; format: in vivo; conditions: one hour prior to testing
adenosine A1 receptor = biological target: T2, adenosine A1 receptor (Rattus norvegicus, UniProt P25099); experiment: Adenosine Receptor Binding - A1 Receptor Affinity (RBA1); conditions: [3H]-CHA, rat whole brain membranes; read-out: RBA-1
T2 construct: Whole brain minus cerebellum and brainstem from male Long Evans rats (150-200 g) was homogenized; from tissue; host or cells: rat whole brain minus cerebellum and brainstem, membrane homogenate
T2 sequence (P25099 1-326): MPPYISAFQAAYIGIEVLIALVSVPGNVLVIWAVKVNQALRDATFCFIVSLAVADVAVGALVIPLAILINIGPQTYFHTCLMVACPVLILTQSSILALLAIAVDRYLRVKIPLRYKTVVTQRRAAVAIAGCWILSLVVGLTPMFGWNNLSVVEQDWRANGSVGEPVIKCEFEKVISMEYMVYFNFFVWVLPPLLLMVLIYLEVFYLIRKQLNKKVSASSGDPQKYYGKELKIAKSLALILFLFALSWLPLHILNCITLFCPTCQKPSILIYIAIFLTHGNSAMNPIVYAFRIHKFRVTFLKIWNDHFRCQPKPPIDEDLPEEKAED

T1 sequence (P30543 whole entry): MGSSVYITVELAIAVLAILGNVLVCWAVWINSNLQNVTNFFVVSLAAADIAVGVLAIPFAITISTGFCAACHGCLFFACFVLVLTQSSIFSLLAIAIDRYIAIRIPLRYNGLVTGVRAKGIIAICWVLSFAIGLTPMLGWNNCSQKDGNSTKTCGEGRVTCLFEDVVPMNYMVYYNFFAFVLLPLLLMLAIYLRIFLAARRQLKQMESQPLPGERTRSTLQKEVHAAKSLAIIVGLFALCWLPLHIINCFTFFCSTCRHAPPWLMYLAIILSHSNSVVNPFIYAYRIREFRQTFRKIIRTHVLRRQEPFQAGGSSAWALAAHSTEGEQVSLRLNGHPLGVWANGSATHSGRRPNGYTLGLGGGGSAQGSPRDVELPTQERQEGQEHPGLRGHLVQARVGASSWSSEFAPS

Row | SMILES | IC50 (adenosine A2 receptor) [nM] | Inhibition of mouse locomotor activity (Swiss-Webster male mice; 3 mg/kg intraperitoneally) [%] | Inhibition of mouse locomotor activity (Swiss-Webster male mice; 10 mg/kg intraperitoneally) [%] | Inhibition of mouse locomotor activity (Swiss-Webster male mice; 30 mg/kg intraperitoneally) [%] | IC50 (adenosine A1 receptor) [nM]
1 | OC[C@H]1O[C@@H](n2cnc3c(NCC4(O)CCCCc5ccccc54)ncnc32)[C@H](O)[C@@H]1O (stereo partly shown) [Example 27, N^6-(1-hydroxy-1-benzocycloheptyl]methyladenosine] | 4010 | 1 | 33 | 33 | 445
2 | OC[C@H]1O[C@@H](n2cnc3c(NCC4CCCCc5ccccc54)ncnc32)[C@H](O)[C@@H]1O (stereo partly shown) [Example 28, N^6-(1-benzocycloheptyl)methyladenosine] | 1270 | 35 | 19 | 59 | 208
